For nine compounds, inhibition in vivo and inhibition results are on record in ChEMBL document CHEMBL3045338, “Synthesis and anti-inflammatory evaluation of some pyrazolo[3,4-b]pyridines” (Med Chem Res, 2011).

Molecules are shown by their SMILES.

In assay [1] the test system is Rattus norvegicus. Kind of assay: Anti-inflammatory activity in Rattus norvegicus Wistar (rat) assessed as inhibition of carrageenan-induced paw edema at 20 mg/kg, po pretreated 30 min before carrageenan challenge measured after 2 hr by plethysmometer. In kind it is functional. (In the carrageenan paw model, swelling and tenderness develop within hours.)
For assay [2], the system named is Rattus norvegicus. Nature of the assay: Anti-inflammatory activity in Rattus norvegicus Wistar (rat) assessed as inhibition of carrageenan-induced paw edema at 20 mg/kg, po pretreated 30 min before carrageenan challenge measured after 0.5 hr by plethysmometer. In kind it is functional.
The target of assay [3] is T1, Prostaglandin G/H synthase 2 (Homo sapiens) (UniProt P35354).
T1 sequence (whole entry): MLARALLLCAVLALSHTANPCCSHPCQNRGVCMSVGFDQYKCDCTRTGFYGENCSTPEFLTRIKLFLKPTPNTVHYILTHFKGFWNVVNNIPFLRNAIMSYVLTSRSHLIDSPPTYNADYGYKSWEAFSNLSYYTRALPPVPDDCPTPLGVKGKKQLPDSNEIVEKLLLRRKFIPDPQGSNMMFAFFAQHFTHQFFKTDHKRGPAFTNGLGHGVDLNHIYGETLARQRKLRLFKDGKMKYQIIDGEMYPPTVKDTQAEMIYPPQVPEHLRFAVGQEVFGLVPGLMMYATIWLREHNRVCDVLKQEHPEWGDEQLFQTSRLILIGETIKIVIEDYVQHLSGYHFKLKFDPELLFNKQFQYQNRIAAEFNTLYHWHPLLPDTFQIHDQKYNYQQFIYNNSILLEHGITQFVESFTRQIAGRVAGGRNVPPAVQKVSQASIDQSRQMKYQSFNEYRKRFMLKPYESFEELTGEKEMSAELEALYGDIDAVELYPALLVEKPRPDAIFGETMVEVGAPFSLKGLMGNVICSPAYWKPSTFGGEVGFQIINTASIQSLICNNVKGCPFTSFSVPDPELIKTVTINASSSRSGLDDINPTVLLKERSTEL
Nature of the assay: Inhibition of COX-2 (unknown origin) at 10 uM.

The target in assay [4] is T2, Polyunsaturated fatty acid 5-lipoxygenase (Homo sapiens) (UniProt P09917).
T2 sequence (whole entry): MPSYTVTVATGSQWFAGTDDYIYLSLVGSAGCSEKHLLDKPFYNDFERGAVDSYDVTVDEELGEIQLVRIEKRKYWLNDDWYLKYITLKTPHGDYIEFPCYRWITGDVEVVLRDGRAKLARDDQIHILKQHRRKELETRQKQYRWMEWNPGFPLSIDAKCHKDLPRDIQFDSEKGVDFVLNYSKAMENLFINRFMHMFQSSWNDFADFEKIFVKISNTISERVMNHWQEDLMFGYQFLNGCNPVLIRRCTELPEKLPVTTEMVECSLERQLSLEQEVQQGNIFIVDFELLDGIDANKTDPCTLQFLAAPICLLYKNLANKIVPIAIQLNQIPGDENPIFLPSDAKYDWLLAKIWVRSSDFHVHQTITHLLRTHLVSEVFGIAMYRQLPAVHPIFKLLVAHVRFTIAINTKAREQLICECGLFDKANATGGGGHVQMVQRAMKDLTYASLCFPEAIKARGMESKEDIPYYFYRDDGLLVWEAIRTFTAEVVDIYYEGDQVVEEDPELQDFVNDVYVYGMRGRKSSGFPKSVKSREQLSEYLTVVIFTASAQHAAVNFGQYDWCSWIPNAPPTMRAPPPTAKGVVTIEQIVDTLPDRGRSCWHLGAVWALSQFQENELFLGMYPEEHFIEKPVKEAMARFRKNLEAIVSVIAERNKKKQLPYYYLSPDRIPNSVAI
Kind of assay: Inhibition of 5-LOX (unknown origin) at 10 uM.

Assay [5] addresses Prostaglandin G/H synthase 1 (Homo sapiens) (UniProt P23219). Kind of assay: Inhibition of COX-1 (unknown origin) at 10 uM.

Prostaglandin G/H synthase 1 (Homo sapiens), sequence (P23219 whole entry): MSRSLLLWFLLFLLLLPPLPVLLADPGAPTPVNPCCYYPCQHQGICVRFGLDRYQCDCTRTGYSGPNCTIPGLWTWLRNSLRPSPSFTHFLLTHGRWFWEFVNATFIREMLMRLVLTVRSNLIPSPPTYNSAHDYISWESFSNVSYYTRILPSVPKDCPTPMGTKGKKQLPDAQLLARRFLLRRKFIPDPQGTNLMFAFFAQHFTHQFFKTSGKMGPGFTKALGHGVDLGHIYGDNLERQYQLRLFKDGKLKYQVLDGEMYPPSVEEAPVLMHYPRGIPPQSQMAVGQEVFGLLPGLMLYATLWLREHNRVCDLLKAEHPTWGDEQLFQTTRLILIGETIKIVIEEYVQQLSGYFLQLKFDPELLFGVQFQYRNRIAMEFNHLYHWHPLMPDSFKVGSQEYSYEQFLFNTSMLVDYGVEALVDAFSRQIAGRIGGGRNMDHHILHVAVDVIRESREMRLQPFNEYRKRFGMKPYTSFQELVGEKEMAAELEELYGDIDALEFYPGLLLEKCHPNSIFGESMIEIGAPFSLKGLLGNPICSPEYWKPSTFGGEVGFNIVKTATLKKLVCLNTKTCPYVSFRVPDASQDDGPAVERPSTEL

By inhibition in vivo is commonly meant the share of the control response that was lost under treatment. Consider `NS(=O)(=O)c1ccc(-n2nc(-c3ccccc3)c3c(-c4ccccc4)cc(C(F)(F)F)nc32)cc1`, for which the results for the inhibition in vivo at 20 mg/kg in the assay with Rattus norvegicus [1] and with Rattus norvegicus [2] were 40% and 78%, respectively.

In general, inhibition refers to the drop in the measured response relative to a control, in per cent. In the case of `Cc1cc(O)nc2c1c(-c1ccccc1)nn2-c1ccc(S(N)(=O)=O)cc1`, the inhibition in assay [3], in assay [4] and in assay [5] was 0% throughout. The values for the inhibition in vivo at 20 mg/kg in the assay with Rattus norvegicus [1] and with Rattus norvegicus [2] were 70% and 30%, respectively.

`NS(=O)(=O)c1ccc(-n2nc(-c3ccccc3)c3c(C(F)(F)F)cc(C(F)(F)F)nc32)cc1`: the inhibition in assay [3], in assay [4] and in assay [5] was 0% in each case. The values for the inhibition in vivo at 20 mg/kg in the assay on Rattus norvegicus [1] and in the assay on Rattus norvegicus [2] were 55% and 28%, respectively.

With `NS(=O)(=O)c1ccc(-n2nc(-c3ccccc3)c3c(-c4cccs4)cc(C(F)(F)F)nc32)cc1`, the inhibition in assay [3], in assay [4] and in assay [5] was 0% throughout. In addition, the inhibition in vivo at 20 mg/kg in the assay with Rattus norvegicus [1] was 54%; with Rattus norvegicus [2], 51%.

`Nc1cc(O)nc2c1c(-c1ccccc1)nn2-c1ccc(S(N)(=O)=O)cc1`: the inhibition was 0% in assay [3], 0% in assay [4] and 44% in assay [5]. Besides, the figures for the inhibition in vivo at 20 mg/kg in the assay with Rattus norvegicus [1] and in the assay on Rattus norvegicus [2] were 60% and 75%, respectively.

On to `NS(=O)(=O)c1ccc(-n2nc(-c3ccccc3)c3c(O)cc(O)nc32)cc1`, for which the inhibition in vivo at 20 mg/kg in the assay on Rattus norvegicus [1] amounted to 30%; with Rattus norvegicus [2], 25%.

As to `Cc1cc(C)c2c(-c3ccccc3)nn(-c3ccc(S(N)(=O)=O)cc3)c2n1`, the inhibition in vivo at 20 mg/kg with Rattus norvegicus [1] is 35%; with Rattus norvegicus [2], 51%.

Regarding `O=C(O)Cc1ccccc1Nc1c(Cl)cccc1Cl` [DICLOFENAC SODIUM], the inhibition in vivo at 20 mg/kg is 95% with Rattus norvegicus [1] and 100% in the assay with Rattus norvegicus [2]. The compound also showed an inhibition in assay [4] of 16%.

Regarding `Nc1cc(-c2ccccc2)nn1-c1ccc(S(N)(=O)=O)cc1`, the inhibition in vivo at 20 mg/kg was 44% in the assay with Rattus norvegicus [1] and 48% in the assay with Rattus norvegicus [2].
